According to patent US10662203B2, “Pyrido[2,3-b]indole compounds for the treatment and prophylaxis of bacterial infection” (Hoffmann-La Roche Inc., priority 2017, dated 2020):
≈ marks a conversion by molar mass, not a printed value.

Columns and labels:
A. baumannii (ATCC17978) = test: 50% growth inhibitory concentration (IC50) determination assay; format: cell-based; settings: Iso-Sensitest broth, 0.098 = detection limit
Outline: (§1)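 Compounds were two-fold serially diluted from 50 to 0.097 μM final in Iso-Sensitest broth, inoculated to ~5×10^5 CFU/mL and incubated at 35±2° C. Growth was followed by OD at 600 nm every 20 minutes for 16 h.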

[1] = system: K. pneumoniae (ATCC10031); test: as above; format: cell-based; settings: Klebsiella pneumoniae, Iso-Sensitest broth, 0.098 = detection limit
Outline: as §1

S. aureus (ATCC29213) = test: as above; format: cell-based; settings: Staphylococcus aureus, Iso-Sensitest broth, 0.098 = detection limit
Outline: as §1

[2] = system: HepG2 cells (ATCC HB-8065); test: Cytotoxicity assay (HepG2, CellTiter-Blue cell viability); format: cell-based; settings: HepG2 cells, 3 days treatment; "*": the detection limit
Outline: (§2)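 HepG2 cells (1.2×10^4 per well) exposed to compounds for 3 days; viability then read by CellTiter-Blue fluorescence after 3 h at 37 °C. CC50 from four-parameter logistic fit.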

[3] = Single dose PK study (SDPK) in female CD-1 mouse; format: in vivo; settings: MOUSE IV, 1.0 mg/kg-Solution; for clearance: female, CD-1, plasma, read-out: CL total
Description: Single Dose PK Study (SDPK) in Female CD-1 Mouse: The single dose PK in female CD-1 mouse was performed to assess compound's pharmacokinetic properties. One group of animals were dosed via bolus intravenous (IV) of the respective compound. Blood samples (approximately 30 μL) were collected via saphenous vein at 5 mins, 15 min, 30 min, 1 hr, 2 hr, 4 hr and 7 hr. For last time point (24 hr), samples were collected via cardiac puncture while the mouse was under anesthesia. Blood samples were placed into tubes containing EDTA-K2 anticoagulant (2 μL of 0.5M per tube) and centrifuged at 3000 rpm for 10 minutes at 4° C. within half an hour to separate plasma from the samples. Following centrifugation, plasma samples were stored in polypropylene tubes, quick frozen over dry ice and kept at −70±10° C. until LC/MS/MS analysis. The pharmacokinetic parameters were calculated using non-compartmental module of WinNonlin® Professional 6.4.

[4] = system: multiple species and strains; test: Minimal inhibitory concentration (MIC) and MIC90 determination, broth microdilution (CLSI M07-A10); settings: S9: P. aeruginosa ATCC BAA-2113
Description: Minimal Inhibitory Concentration (MIC) and MIC90 Determination:
The MIC of antibacterial compounds against multiple species and strains was determined using the broth microdilution method according to M07-A10 Clinical and Laboratory Standards Institute (CLSI) guidelines (CLSI (2015) Methods for dilution antimicrobial susceptibility tests for bacteria that grow aerobically; Approved Standard, Tenth Edition. CLSI Document M7-A10 (ISBN 1-56238-987-4). Wayne, Pa.: Clinical and Laboratory Standards Institute, 19087, USA.). In short, bacterial strain preparation was performed on D1 and D2. […] 5-10 well-isolated colonies of similar morphology were selected and re-streaked onto fresh agar plates using sterile loops and incubated for 20-24 hr at 35±2° C. Bacterial strains were subcultured two times to ensure fresh inoculums for MIC screening. […] Alternatively, 1-2 colonies were transferred into 500 μL of saline and OD600 was adjusted to ˜0.1 using an OD meter. Bacterial inoculum was diluted by 1:280 for Gram-positive strains and 1:400 for Gram-negative strains into corresponding medium broth (CAMHB, CAMHB+3% lysed horse blood, HTM) (e.g. 35.6 μL of inoculum into 10 mL of CAMHB or 25 μL of inoculum into 10 mL of CAMHB). […] Compound stock concentration=[(highest testing concentration)×100 μL/2 μL] (e.g. if the required highest testing concentration is 64 μg/mL in assay plates, stock concentration=64 μg/mL×100 μL/2 μL=3.2 mg/mL). […] of each well was transferred in a new MTP, which served as the test plate by subsequent inoculation. The bacterial suspension prepared above is dispensed at 98 μL/well within 15 minutes after preparation. Negative controls (lack of bacterial cells) and growth control wells (lack of compound) were included in all plates. MTPs were incubated for 18-24 hours at 35±2° C. in ambient air. The MIC was recorded and CFUs were calculated on Day 4. The assay plate was placed on the top of MIC reader, and the magnification mirror was adjusted to read each wells, recording growth status as raw data. Photo images of each assay plates were recorded using Q Count 530 (Spiral Biotech). The MIC value of each compound, expressed as […], was determined as the lowest concentration required for complete growth inhibition (no visible growth).

[5] = Lyophilisation solubility assay (LYSA); format: physicochemical; settings: phosphate buffer, pH 6.5, aqueous buffer, thermodynamic from solid, 0.05 M phosphate buffer, HPLC-UV
Outline: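 Read-out is HPLC-UV of the filtered solution and its 1/10 dilution. The dried residue of a 10 mM DMSO stock was redissolved in 0.05 M pH 6.5 phosphate buffer, then stirred 1 h, shaken 2 h and held overnight. Run in duplicate.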

[6] = Cytotoxicity assay (HepG2, CellTiter-Blue cell viability); format: cell-based; settings: human; HepG2 cells, 3 days treatment; "*": the detection limit; read-out: CC50
Outline: as §2

[7] = Acinetobacter baumannii, ATCC17978, A. baumannii ATCC17978

Compound | IC50 (A. baumannii (ATCC17978); A. baumannii ATCC17978) | IC50 [1] | IC50 (S. aureus (ATCC29213)) | CC50 [2] | AUC total [3] | clearance [3] | MIC S9 [4] | IC50 (A. baumannii (ATCC17978); [7]) | solubility thermodynamic [5] | CC50 at 3 days [6]
CNc1cc(F)c(F)c2c1[nH]c1ncc(-c3cnc4c(c3)c(=O)c(C(=O)O)cn4C3CCNC3)c(N(C)C)c12 (centres unmarked) [Example 1.02] | 0.693 µM | < 0.098 µM | < 0.098 µM | > 100000 nM | 291.0 ng·h/mL | 58.8 mL/min/kg | 3.335 | – | – | –
CNc1cc(F)c(F)c2c1[nH]c1ncc(-c3cnc4c(c3)c(=O)c(C(=O)O)cn4C)c(N3CCC[C@H]3CN(C)C)c12 [Example 1.14] | – | < 0.098 µM | < 0.098 µM | – | – | – | 7.02 | 0.154 µM | 407 µg/mL (≈ 725 µM) | 29100 nM
CNc1cc(F)c(F)c2c1[nH]c1ncc(-c3cnc4c(c3)c(=O)c(C(=O)O)cn4C)c(N3CC[C@H]4CN(C)CC43)c12 (some centres unmarked) [Example 1.85] | – | < 0.098 µM | < 0.098 µM | – | 177.0 ng·h/mL | 94.8 mL/min/kg | 6.995 | 0.089 µM | 101 µg/mL (≈ 180 µM) | 35200 nM
CNc1cc(F)c(F)c2c1[nH]c1ncc(-c3cnc4c(c3)c(=O)c(C(=O)O)cn4NC)c(N3CC[C@H]4CN(C)CC43)c12 (some centres unmarked) [Example 1.189] | – | < 0.098 µM | < 0.098 µM | – | – | – | 4.304 | 0.095 µM | 255 µg/mL (≈ 444 µM) | 41200 nM
CNc1cc(F)c(C#N)c2c1[nH]c1ncc(-c3cnc4c(c3)c(=O)c(C(=O)O)cn4C)c(N3CC[C@H]4CN(C)C[C@H]43)c12 [Example 1.298] | – | – | – | – | 274.0 ng·h/mL | 62.7 mL/min/kg | 17.016 | – | – | –
CNc1cc(F)c(F)c2c1[nH]c1ncc(-c3cnc4c(c3)c(=O)c(C(=O)O)cn4NC)c(N3CC[C@H]4CN(C)C[C@H]43)c12 [Example 3.01A, 6-[5,6-difluoro-8-(methylamino)-4-[(3aS,6aS)-5-methyl-2,3,3a,4,6,6a-hexahydropyrrolo[2,3-c]pyrrol-1-yl]-9H-pyrido[2,3-b]indol-3-yl]-1-(methylamino)-4-oxo-1,8-naphthyridine-3-carboxylic acid] | – | < 0.098 µM | < 0.098 µM | – | 195.4 ng·h/mL | 81.9 mL/min/kg | 1.796 | 0.034 µM | 264 µg/mL (≈ 459 µM) | 54100 nM
CNc1cc(F)c(F)c2c1[nH]c1ncc(-c3cnc4c(c3)c(=O)c(C(=O)O)cn4C)c(N3CC[C@H]4CN(C)C[C@H]43)c12 [Example 3.03A] | – | < 0.098 µM | < 0.098 µM | – | 249.6 ng·h/mL | 66.9 mL/min/kg | 1.749 | 0.039 µM | 137 µg/mL (≈ 245 µM) | 38400 nM
CNc1cc(F)cc2c1[nH]c1ncc(-c3cnc4c(c3)c(=O)c(C(=O)O)cn4C)c(N3CC[C@H]4CN(C)C[C@H]43)c12 [Example 3.04A] | – | < 0.098 µM | < 0.098 µM | – | 241.6 ng·h/mL | 68.9 mL/min/kg | 6.77 | 0.035 µM | 485 µg/mL (≈ 896 µM) | 49500 nM
CNc1cc(F)cc2c1[nH]c1ncc(-c3cnc4c(c3)c(=O)c(C(=O)O)cn4NC)c(N3CC[C@H]4CN(C)C[C@H]43)c12 [Example 3.05A] | – | < 0.098 µM | < 0.098 µM | – | 356.4 ng·h/mL | 50.5 mL/min/kg | 6.957 | 0.055 µM | 535 µg/mL (≈ 961 µM) | 54500 nM
